Laboratory results published in PubChem BioAssay (NCI).
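1) Cells in 96-well plates. 2) Compound, 48 h, 5 concentrations. 3) Linear interpolation between surrounding doses. 4) Unreached endpoint = highest concentration. At the TGI there is no net growth.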

Assays:
Experiment in all cases: NCI-60 cell line screen, 48 h
[1] = system: 786-0 renal
[2] = system: A549 NSCLC
[3] = system: ACHN renal
[4] = system: BT-549 breast
[5] = system: CAKI-1 renal
[6] = system: CCRF-CEM leukemia
[7] = system: COLO 205 colon
[8] = system: DU-145 prostate
[9] = system: EKVX NSCLC
[10] = system: HCC-2998 colon
[11] = system: HCT-116 colon
[12] = system: HCT-15 colon
[13] = system: HL-60(TB) leukemia
[14] = system: HOP-62 NSCLC
[15] = system: HOP-92 NSCLC
[16] = system: HS 578T breast
[17] = system: HT29 colon
[18] = system: IGROV1 ovarian
[19] = system: K-562 leukemia
[20] = system: KM12 colon
[21] = system: LOX IMVI melanoma
[22] = system: M14 melanoma
[23] = system: MCF7 breast
[24] = system: MDA-MB-231 breast
[25] = system: MDA-MB-435
[26] = system: MDA-N
[27] = system: MOLT-4 leukemia
[28] = system: NCI-H226 lung
[29] = system: NCI-H23 lung
[30] = system: NCI-H460 lung
[31] = system: NCI-H522 lung
[32] = system: NCI/ADR-RES ovarian
[33] = system: OVCAR-3 ovarian
[34] = system: OVCAR-4 ovarian
[35] = system: OVCAR-5 ovarian
[36] = system: OVCAR-8 ovarian
[37] = system: PC-3 prostate
[38] = system: RPMI-8226 leukemia
[39] = system: RXF 393 renal
[40] = system: SF-268 CNS
[41] = system: SF-295 CNS
[42] = system: SF-539 CNS
[43] = system: SK-MEL-2 melanoma
[44] = system: SK-MEL-28 melanoma
[45] = system: SK-MEL-5 melanoma
[46] = system: SK-OV-3 ovarian
[47] = system: SN12C renal
[48] = system: SNB-19 CNS
[49] = system: SNB-75 CNS
[50] = system: SW-620 colon
[51] = system: T-47D breast
[52] = system: TK-10 renal
[53] = system: U251 CNS
[54] = system: UACC-257 melanoma
[55] = system: UACC-62 melanoma
[56] = system: UO-31 renal
[57] = system: A498 renal
[58] = system: MALME-3M melanoma

O=C1C(C=NC(=S)c2ccccc2)=C(O)c2ccccc21
TGI [1]: > 66.7 µM
TGI [2]: > 100 µM
TGI [3]: > 100 µM
TGI [4]: > 94 µM
TGI [5]: > 100 µM
TGI [6]: 53.9 µM
TGI [7]: > 100 µM
TGI [8]: > 100 µM
TGI [9]: > 100 µM
TGI [10]: > 100 µM
TGI [11]: > 100 µM
TGI [12]: > 100 µM
TGI [13]: 22 µM
TGI [14]: > 100 µM
TGI [15]: > 84.8 µM
TGI [16]: > 100 µM
TGI [17]: > 100 µM
TGI [18]: > 70.5 µM
TGI [19]: > 100 µM
TGI [20]: > 100 µM
TGI [21]: > 67.9 µM
TGI [22]: > 100 µM
TGI [23]: > 100 µM
TGI [24]: > 100 µM
TGI [25]: > 100 µM
TGI [26]: > 100 µM
TGI [27]: 69.3 µM
TGI [28]: > 100 µM
TGI [29]: > 100 µM
TGI [30]: > 100 µM
TGI [31]: 50.9 µM
TGI [32]: > 100 µM
TGI [33]: > 100 µM
TGI [34]: > 100 µM
TGI [35]: > 100 µM
TGI [36]: > 100 µM
TGI [37]: > 100 µM
TGI [38]: 67.6 µM
TGI [39]: > 100 µM
TGI [40]: > 100 µM
TGI [41]: > 100 µM
TGI [42]: > 100 µM
TGI [43]: > 100 µM
TGI [44]: > 100 µM
TGI [45]: > 100 µM
TGI [46]: 85.6 µM
TGI [47]: > 100 µM
TGI [48]: > 100 µM
TGI [49]: > 100 µM
TGI [50]: > 100 µM
TGI [51]: > 100 µM
TGI [52]: > 100 µM
TGI [53]: > 100 µM
TGI [54]: > 100 µM
TGI [55]: > 100 µM
TGI [56]: > 88.9 µM

COc1ccc(C(NS(=O)(=O)c2ccc(C)cc2)c2c(C(CBr)OC)c3ccccc3n2S(=O)(=O)c2ccccc2)cc1OC (centres undefined)
TGI [1]: > 100 µM
TGI [57]: > 100 µM
TGI [2]: > 100 µM
TGI [3]: > 100 µM
TGI [4]: > 100 µM
TGI [5]: > 100 µM
TGI [6]: > 100 µM
TGI [7]: > 100 µM
TGI [8]: > 100 µM
TGI [9]: > 100 µM
TGI [10]: > 100 µM
TGI [11]: > 100 µM
TGI [12]: > 100 µM
TGI [13]: > 100 µM
TGI [14]: > 100 µM
TGI [15]: > 100 µM
TGI [16]: > 100 µM
TGI [17]: > 100 µM
TGI [18]: > 100 µM
TGI [19]: > 100 µM
TGI [20]: > 100 µM
TGI [21]: > 100 µM
TGI [22]: > 100 µM
TGI [58]: > 100 µM
TGI [23]: > 100 µM
TGI [24]: > 100 µM
TGI [25]: > 100 µM
TGI [26]: > 100 µM
TGI [27]: > 100 µM
TGI [28]: > 100 µM
TGI [29]: > 100 µM
TGI [30]: > 100 µM
TGI [31]: > 100 µM
TGI [32]: > 100 µM
TGI [33]: > 100 µM
TGI [34]: > 100 µM
TGI [35]: > 100 µM
TGI [36]: > 100 µM
TGI [37]: > 100 µM
TGI [39]: > 100 µM
TGI [40]: > 100 µM
TGI [41]: > 100 µM
TGI [42]: > 100 µM
TGI [43]: > 100 µM
TGI [44]: > 100 µM
TGI [45]: > 100 µM
TGI [46]: > 100 µM
TGI [47]: > 100 µM
TGI [48]: > 100 µM
TGI [49]: > 100 µM
TGI [50]: > 100 µM
TGI [51]: > 100 µM
TGI [52]: > 100 µM
TGI [53]: > 100 µM
TGI [54]: > 100 µM
TGI [55]: > 100 µM
TGI [56]: > 100 µM

O=S(=O)(O)c1cc(S(=O)(=O)O)c2c(Nc3ccnc4ccccc34)ccc(S(=O)(=O)O)c2c1
TGI [1]: > 100 µM
TGI [57]: > 100 µM
TGI [2]: > 100 µM
TGI [3]: > 100 µM
TGI [4]: > 100 µM
TGI [5]: > 100 µM
TGI [6]: > 100 µM
TGI [7]: > 100 µM
TGI [8]: > 100 µM
TGI [9]: > 100 µM
TGI [10]: > 100 µM
TGI [11]: > 100 µM
TGI [12]: > 100 µM
TGI [13]: > 100 µM
TGI [14]: > 100 µM
TGI [16]: > 100 µM
TGI [17]: > 100 µM
TGI [18]: > 100 µM
TGI [20]: > 100 µM
TGI [21]: > 100 µM
TGI [22]: > 100 µM
TGI [58]: > 100 µM
TGI [23]: > 100 µM
TGI [24]: > 100 µM
TGI [25]: > 100 µM
TGI [26]: > 100 µM
TGI [27]: > 100 µM
TGI [28]: > 100 µM
TGI [29]: > 100 µM
TGI [30]: > 100 µM
TGI [31]: > 100 µM
TGI [32]: > 100 µM
TGI [33]: > 100 µM
TGI [34]: > 100 µM
TGI [35]: > 100 µM
TGI [36]: > 100 µM
TGI [37]: > 100 µM
TGI [38]: > 100 µM
TGI [39]: > 100 µM
TGI [40]: > 100 µM
TGI [41]: > 100 µM
TGI [42]: > 100 µM
TGI [43]: > 100 µM
TGI [44]: > 100 µM
TGI [45]: > 100 µM
TGI [46]: > 100 µM
TGI [47]: > 100 µM
TGI [48]: > 100 µM
TGI [49]: > 100 µM
TGI [50]: > 100 µM
TGI [51]: > 100 µM
TGI [52]: > 100 µM
TGI [53]: > 100 µM
TGI [54]: > 100 µM
TGI [55]: > 100 µM
TGI [56]: > 100 µM
